Experimental data from patent publication US20070134670A1, “Methods for prediction and prognosis of cancer, and monitoring cancer therapy” (BAYER PHARMACEUTICALS CORPORATION, priority 2003, published 2007).

Test system: stanniocalcin expression in HMVEC cells
Experiment: In vitro endothelial cell gene expression profiling (Affymetrix / TaqMan), HMVEC
Format: cell-based, human
Conditions: HMVECs; VEGF 10 ng/ml with heparin, 2 hours (FIG. 2A)
From the text: Pooled human microvascular endothelial cells (HMVECs) or human umbilical vein endothelial cells (HUVECs) were purchased as 2 T75 flasks (Clonetics, Cambrex Corporation, East Rutherford, N.J.). Cells were expanded in fill Clonetics growth media (EGF+5% FCS) on 2% gelatin coated flasks until sufficient numbers were obtained to perform the experiment (4 flasks each at less than 6 passages). Prior to the treatments, cells were washed 2× in PBS and starved overnight in basal media (EBM+0.2% endotoxin free BSA). The next day, media was removed and replaced with 25 ml of EBM+BSA. VEGFR2 inhibitor (drug) stock was made in DMSO and added to a final concentration of 100 nm in 0.1% DMSO. Heparin was used at 1.5 U/ml final concentration. VEGF final concentration was 10 ng/ml. Drug/DMSO was added for 30 minutes prior to adding VEGF/Heparin for 2 hours. […] RNA was subsequently isolated via Qiagen midi spin kits and quantitated by OD260/280 and gel visualization and/or Agilent bioanalyzer.
Samples were organically extracted and ethanol precipitated. […] The resulting cRNA was put through RNeasy clean-up protocol, and then quantified using UV spectrophotometry. […]
A master mix of the primers at 50 μM each was prepared. The samples were analyzed by standard PCR conditions on an ABI PRISM 7700 Sequence Detector using SYBR green probes. β-actin was used as controls for loading normalization.

## VEGF
  human stanniocalcin-1 expression induced after treatment with VEGF: ~20 fold
